Source: US11504349B2, “Composition for preventing or treating TNF-related diseases, containing novel derivative as active ingredient, and method for inhibiting TNF activity by using same” (ILAB, priority 2017, dated 2022)

How the values were obtained:
[1] = Cytotoxicity (CC50) in LM cells, MTT assay; type: cell-based; details: mouse, LM cells (mouse fibroblasts); 50% cytotoxic concentration
Experimental: First, the addition of recombinant TNF to mouse fibroblast LM cells induces cell death, and thus, by using the same, the TNF-neutralization bioassay was constructed. In other words, LM cells were pretreated with TNF (20 ng/ml) and the compounds synthesized in the above examples at various concentrations (5×10^4 cells/well), and a sensitizer actinomycin D ([…]) was added, and cultured in a CO2 incubator for 24 hours, and then the MTT assay was carried out. At this time, 10 μl of MTT (5 mg/ml stock) was added, reacted for 4 hours, and then dissolved in DMSO to measure the absorbance at 570 nm. First, the TNF cell death inhibition/neutralization action of TNF-target expected compounds at single concentration (50 or 10 μM) was measured. Second, IC50 values were determined by treating with the compounds having an excellent effect at different concentrations. The % inhibition of TNF was calculated using the following formula: % inhibition of TNF=(OD value of a group treated with TNF and compound−OD value of TNF treated group/(OD value of TNF untreated group−OD value of TNF treated group)×100.
IC50 values were statistically analyzed using Prism 6 (GraphPad) (IC50: 50% inhibitory concentration, CC50: 50% cytotoxic concentration).

BALB/c mice = test: In vivo TNF neutralization assay (TNF/D-galactosamine-induced lethality); parameters: species or system mouse; details: 3.3, 16.5 mpk PO 30 minutes before challenge; 24 hours; concentration-dependent
Experimental: Treatment with TNF and a sensitizer D-galactosamine in an in vivo mouse model leads to death from acute liver failure. Thus, the compound of Example 61 (3.3 mpk or 16.5 mpk) was orally administered to BALB/c mice, and after 30 minutes, the mice were IP treated with the mixture of D-galactosamine (21 mg/mouse) and TNF (0.3 μg/mouse). Survival rates were observed and recorded every 3 hours up to 24 hours, and statistically analyzed by log-rank (Mantel-Cox) test using Prism 6 (GraphPad) (N=13/group, **P<0.005, ***P<0.001). mpk, mg/kg). This confirmed that the in vivo neutralization activity of the compounds binding to TNF in a TNF-induced lethality model.

TNF = TNF (Homo sapiens, UniProt P01375); test: SPR (Biacore T200) direct binding to immobilized TNF; details: TNF immobilized on CM5 chip, read-out: binding affinity (KD)
Experimental: The binding kinetics of TNF and 4-benzopyranone derivative compounds was measured by Surface Plasmon Resonance (SPR) method. First, based on the results of pH scouting (10 mM acetate buffer, pH 4.0, 4.5, 5.0, and 5.5), the appropriate buffer pH was determined, and then the recombinant TNF was immobilized on the CM5 chip (4000-5000 RU). In order to correct an effect of DMSO, a solvent correction standard was then prepared, and DMSO was added to the HBS-EP+ buffer (GE) in an amount of 5%. Then, the 4-benzopyranone derivative compounds were prepared depending on concentration, flowed into the chip (20 μl/min, 500 s), and dissolved (500 s), and the results of sensorgram were analyzed by a dedicated program to determine the affinity value (KD). At this time, the running buffer was HBS-EP+ buffer (GE), the regeneration buffer was 10 mM glycine (pH 2.5), and Biacore T200 (GE) was used as an analyzer.

NF-kB p65 = test: Western blot: TNF-induced NF-kB p65 nuclear migration in LM cells; type: cell-based, mouse; details: TNF 50 ng/ml, 1 hour, compound at about 25 μM
Experimental: First, LM cells was treated with TNF alone (50 ng/ml) or a mixture of TNF and the compound of Example 61 (0, 10, 25, 50 μM) for 1 hour, and then the cells were washed and prepared. After the cytoplasmic fraction and nuclear fraction were separated/obtained using NE-PER nuclear and cytoplasmic extraction reagents (Thermo Scientific, cat #78833), NF-kB p65 protein was detected by SDS-PAGE and Western Blot. Anti-NF-κB p65 rabbit monoclonal antibody (Cell Signaling Technology, cat #D14E12) was used as a primary antibody, and goat anti-rabbit HRP-conjugated antibody (Invitrogen, cat #656120) was used as a secondary antibody. As a Western Blot control protein (housekeeping protein), GAPDH was used in the cytoplasmic fraction, and Lamin B1 was used in the nuclear fraction. Anti-GAPDH mouse monoclonal antibody (GenScript, cat #A01622) was used as a primary antibody of GAPDH, and goat anti-mouse HRP-conjugated antibody (BETHYLlaboratories, cat #A90-116P) was used as a secondary antibody. Anti-Lamin-B1 rabbit monoclonal antibody (Cell Signaling Technology, cat #12586S) was used as a primary antibody of Lamin B1, and anti-rabbit HRP-conjugated antibody (Invitrogen, cat #656120) was used as a secondary antibody.

TNF-etanercept binding = TNF-etanercept binding (Homo sapiens, UniProt P01375); test: SPR competition: inhibition of TNF-etanercept binding; details: etanercept alone vs with compound, FIG. 2e
Experimental: The competition of binding of TNF-inhibiting biopharmaceutical etanercept and the derivative compounds to TNF was measured by SPR assay. Based on the results of pH scouting (10 mM acetate buffer, pH 4.0, 4.5, 5.0, and 5.5), the appropriate buffer pH was determined, and then the recombinant TNF was immobilized on the CM5 chip (4000-5000 RU). In order to correct an effect of DMSO, a solvent correction standard was then prepared, and DMSO was added to the PBST buffer (1×PBS, pH 7.4, 0.05% Tween 20, 0.01% Triton X-100, 5% DMSO) in an amount of 5%. Then, Etanercept alone or in combination with the compounds was flowed into the chip (20 μl/min, 300 s) and dissolved (700 s), and the results of sensorgram were analyzed by a dedicated program. […] At this time, the running buffer was PBST buffer, the regeneration buffer was 10 mM glycine (pH 2.5), and the instrument was Biacore T200 (GE).

Sequence of TNF (P01375 77-233 limits assumed): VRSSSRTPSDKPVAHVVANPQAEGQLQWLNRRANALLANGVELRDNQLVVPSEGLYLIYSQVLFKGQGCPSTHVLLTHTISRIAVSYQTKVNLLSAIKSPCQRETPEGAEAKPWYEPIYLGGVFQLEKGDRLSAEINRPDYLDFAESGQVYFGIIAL
Sequence of TNF-etanercept binding (P01375 77-233 limits assumed): as above

With `O=C(O)c1c(-c2cc(F)ccc2F)oc2cc(Cl)ccc2c1=O` [Example 61, 2-(2,5-difluorophenyl)-3-carboxy-7-chloro-(4H)-4-benzopyranone] the CC50 at 24 h [1] was over 50000 nM, the “death of mice due to acute hepatotoxicity induced by D-galactosamine and TNF” value (BALB/c mice) was “inhibited” and the Kd (TNF) was 1440 nM. The “migration of NF-kB from the cytoplasm to the nucleus activated by TNF” value (NF-kB p65) was “almost completely inhibited” and the “inhibition of TNF-etanercept binding” value (TNF-etanercept binding) was “significantly inhibited the TNF-etanercept binding”.
